Common to all, as to test: NCI anticancer screen, dose series, 48 h
The subject of test [1] is HCT-116 colon.
Test [2] relates to OVCAR-3 ovarian.
For test [3], the system named is CAKI-1 renal.
For test [4], the system named is K-562 leukemia.
Test [5] concerns 786-0 renal.
The test system of test [6] is UO-31 renal.
In test [7] the test system is LOX IMVI melanoma.

Structures are written as SMILES. “And” between values parts separate entries of the source, which are not always exact repeats. Equal entries are not always repeated.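 Five concentrations, 48 hours, 96-well plates. GI50 is the concentration that inhibits growth by half. TGI denotes the concentration required for complete inhibition of growth.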

For `COc1ccc(-c2cc(/C=C3\C(=O)Nc4ccc(Cl)cc43)[nH]n2)cc1`, the GI50 was 4.13 µM in test [1]; 3.05 µM in test [2]; 3.31 µM in test [3]; 2.56 µM in test [4]; 5.28 µM in test [5]; 4.02 µM in test [6]. Besides, the TGI in test [1] was 14.1 µM; in test [2], 8.42 µM; in test [3], 13.8 µM; in test [4], 13.1 µM; in test [5] it was 17.4 µM; in test [6], 16.9 µM.
Turning to `C=C1C(=O)O[C@H]2[C@H]1CC/C(COC(=O)NCc1ccc(Cn3c(=O)sn(CCCCl)c3=O)cc1)=C\CC[C@@]1(C)O[C@@H]21`, the GI50 in test [1] was 0.565 µM; in test [2] it was 0.776 µM; in test [3], 2.05 µM; in test [4] it was 0.726 µM; in test [5] it was 1.48 µM; in test [7], 1.58 µM. In test [6], the GI50 was 1.4 µM. For the same compound, the TGI in test [1] is 1.87 µM; in test [2], 2.09 µM; in test [3] it was 5.33 µM; in test [4], > 100 µM; in test [5], 2.9 µM; in test [7], 3.09 µM. For the same compound, in test [6], the TGI is 2.75 µM.
Turning to `COc1ccc(/C=C/c2nc(NCCCN(C)C)c3ccccc3n2)cc1`, the GI50 in test [1] was 2.3 µM; in test [2] it was 4.88 µM; in test [3], 16.5 µM; in test [4] it was 1.99 µM; in test [5], 13.3 µM; in test [7], 1.83 µM. The GI50 in test [6] was 14.1 µM. Further, the TGI in test [1] stood at 5.88 µM; in test [2], 11.4 µM; in test [3] it was 33.7 µM; in test [4] it was 4.4 µM; in test [5], 26.7 µM; in test [7], 3.42 µM. For the same compound, the TGI in test [6] amounted to 29.4 µM.
As for `COCCOC(=O)NC(=O)Nc1ccc(/C(=N/O)c2ccc(Cl)cc2)cc1`, the GI50 in test [1] was 0.112 µM; in test [2], 0.0991 µM; in test [4], 0.0633 µM; in test [5], 0.249 µM; in test [7], 0.144 µM; in test [6], 0.284 µM. Further, the TGI was 23.6 µM in test [1]; 4.4 µM in test [2]; > 100 µM in test [3]; 31.9 µM in test [4]; 25.7 µM in test [5]; 23.7 µM in test [7]. The compound further registered a TGI in test [6] of 26.5 µM.
On to `CN1CCCN(C)C1c1cc([N+](=O)[O-])ccc1O`, for which the TGI in test [1], in test [2], in test [3], in test [4], in test [5] and in test [7] was > 100 µM each time. This compound gave a TGI in test [6] of 64.8 µM.
For `CC(C)(C)NCc1cc(C(C)(C)C)cc(-c2ccc(Cl)cc2)c1O`, the TGI in test [1] is 26 µM; in test [2], 29.5 µM; in test [3], 25.6 µM; in test [5], 26.8 µM; in test [6], 15.1 µM.
Regarding `CCCCCCCCCCN(CCCCCCCCCC)CC(=O)c1ccc2cc(Br)c3ccccc3c2c1`, the GI50 is 1.67 µM in test [1]; 1.98 µM in test [2]; 1.7 µM in test [3]; 2.05 µM in test [4]; 1.81 µM in test [5]; 1.75 µM in test [7]. The GI50 in test [6] was 1.86 µM. The TGI in test [1] is 3.17 µM; in test [2] it was 3.54 µM; in test [3], 4.43 µM; in test [4], 4.84 µM; in test [5], 3.39 µM; in test [7], 3.32 µM. Moreover, in test [6], the TGI turned out to be 7.2 µM.
`O=C(Nc1ccc(F)cc1)c1c(NC(=O)C(F)(F)F)sc2c1CCCCC2`: the GI50 is 2.05 µM in test [1]; 2.04 µM in test [2]; 1.35 µM in test [3]; 1.97 µM in test [4]; 2.43 µM in test [5]; 2.43 µM in test [7]. Besides, the GI50 in test [6] is 1.87 µM. Besides, the TGI in test [1] was 10.3 µM; in test [2], 16.3 µM; in test [3], 5.17 µM; in test [4], > 100 µM; in test [5], 10.5 µM; in test [7], 13.2 µM. For the same compound, the TGI in test [6] was 6.9 µM.
In the case of `O=c1[nH]c(=O)n(C2OC(CO)C(O)C2O)c2c1CCCC2` (configuration not stated), the TGI in test [1], in test [2], in test [3], in test [4], in test [5] and in test [7] was > 100 µM each time. Moreover, the TGI in test [6] was > 100 µM.
Regarding `Cn1c(=O)c(Oc2ccccc2F)cc2cnc(NC3CCOCC3)nc21`, the GI50 in test [1], in test [2], in test [3], in test [4], in test [5] and in test [7] was > 25 µM in each case. Besides, the GI50 in test [6] was > 14.4 µM. For the same compound, the TGI in test [1], in test [2], in test [3], in test [4], in test [5] and in test [7] was > 25 µM throughout. For the same compound, the TGI in test [6] is > 25 µM.
For the compound `C[C@]1(CO)[C@H]2CC[C@@]34C=C[C@@](CO)(CC[C@H]3[C@]2(C)CC[C@H]1O)C4`, the TGI in test [1], in test [2], in test [3], in test [5], in test [7] and in test [6] was > 100 µM throughout.
Take `COc1cc2c3c(n(CCCNCCN)c(=O)c2cc1OC)-c1cc2c(cc1C3=O)OCO2`: the GI50 was 0.359 µM in test [1]; 0.363 µM in test [2]; 0.836 µM in test [3]; 0.601 µM in test [4]; 0.312 µM in test [5]; 0.0299 µM in test [7]. The GI50 in test [6] is 5.26 µM. Further, the TGI in test [1] came out at 0.986 µM; in test [2], 1.21 µM; in test [3] it was 5.87 µM; in test [4], 3.77 µM; in test [5], 2.5 µM; in test [7], 0.244 µM. In test [6], the TGI is > 32.9 µM.
As for `O=C(c1ccc2ncc(-c3nc(NC4CC4)ncc3F)n2c1)N1CCOCC1`, the GI50 in test [1] was 1.23 µM; in test [2] it was 2.21 µM; in test [3] it was 1.33 µM; in test [4] it was 3.21 µM; in test [5], 3.06 µM; in test [7] it was 1.11 µM. Besides, the GI50 in test [6] was 2.66 µM. The TGI was found to be 10.4 µM in test [1]; 7.22 µM in test [2]; 62.8 µM in test [3]; 29 µM in test [4]; 27.5 µM in test [5]; 41.4 µM in test [7]. Also, the TGI in test [6] is 13.6 µM.
For the compound `N#Cc1cnc2cc(OC[C@@H](O)CO)c(NC(=O)CC3CSSC3)cc2c1Nc1ccc(OCc2cccc(F)c2)c(Cl)c1`, the GI50 in test [1] was 0.0882 µM; in test [2], 0.284 µM; in test [3], 6.34 µM; in test [4], 0.0945 µM; in test [5], 1.38 µM; in test [7], 2.17 µM. For the same compound, in test [6], the GI50 was 1.63 µM. The TGI came out at 0.2 µM in test [1]; 0.913 µM in test [2]; 18.9 µM in test [3]; 0.207 µM in test [4]; 4.57 µM in test [5]; 3.08 µM in test [7]. In addition, in test [6], the TGI amounted to 5.5 µM.
Consider `Nc1ccc(S(=O)(=O)C23CC4CC(CC(C4)C2)C3)cc1`, for which the TGI in test [1], in test [2], in test [3], in test [4], in test [5] and in test [7] was > 100 µM in each case. Also, the TGI in test [6] was > 100 µM.
On to `CCN1C(=S)N(CC)C2C1NC(=S)N2/N=C/C=C/c1ccccc1` (configuration not stated), for which the GI50 in test [1] was 1.3 µM; in test [2], 0.52 µM; in test [3], 0.776 µM; in test [4], 0.382 µM; in test [5] it was 5.19 µM; in test [7], 2.81 µM. Moreover, in test [6], the GI50 is 3.55 µM. For the same compound, the TGI was found to be 12.4 µM in test [1]; 4.97 µM in test [2]; 18.6 µM in test [3]; 14.1 µM in test [4]; 19.2 µM in test [5]; 17 µM in test [7]. This compound also came in with a TGI in test [6] of 18.3 µM.
With `O=C(NCCCNc1cc(-c2cn(-c3ccccc3)nc2-c2cccc(O)c2)ccn1)c1ccccc1`, the GI50 in test [1] was 3.58 µM; in test [2], 3.73 µM; in test [3], 2.48 µM; in test [5] it was 2.04 µM; in test [7] it was 2.25 µM; in test [6], 2.36 µM. In addition, the TGI in test [1] was determined as 17 µM; in test [2] it was 21 µM; in test [3] it was 15.3 µM; in test [5], 4.69 µM; in test [7], 6.36 µM; in test [6] it was 23.6 µM.
`Cc1nc2sc(C(=O)Nc3cccc4ccccc34)c(N)c2cc1C(=O)c1ccccc1`: the GI50 in test [1] was 1.68 µM; in test [3] it was 1.62 µM; in test [4] it was 0.93 µM; in test [5], 2.38 µM; in test [7] it was 2.56 µM; in test [6] it was 2.11 µM. Moreover, the TGI in test [1], in test [3], in test [4], in test [5], in test [7] and in test [6] was > 50 µM each time.
Turning to `Cc1nc2ccc(Nc3nc(NCCN4CCOCC4)nc(Nc4ccc(F)cc4)n3)cc2n1Cc1ccccc1`, the GI50 in test [1] was 2.02 µM; in test [2], 4.24 µM; in test [3], 2.55 µM; in test [4], 1.79 µM; in test [5], 1.41 µM; in test [6], 1.78 µM. Further, the TGI in test [1] came to 5.43 µM; in test [2], 20.3 µM; in test [3], 65 µM; in test [4], 7.42 µM; in test [5] it was 3.04 µM; in test [6], 8.2 µM.
On to `CN(C)N1C(=O)c2ccccc2NC1c1ccccc1` (configuration not stated), for which the TGI in test [1], in test [2], in test [3], in test [5], in test [7] and in test [6] was > 100 µM throughout.
Regarding `CCOC(=O)c1[nH]c(-c2ccc(Cl)cc2)cc1-c1cccnc1`, the GI50 is 0.387 µM in test [1]; 0.349 µM in test [2]; 0.391 µM in test [4]; 0.44 µM in test [5]; 0.659 µM in test [7]; 1.02 µM in test [6]. Also, the TGI in test [1] is > 100 µM; in test [2], > 100 µM; in test [4] it was > 100 µM; in test [5], 8.58 µM; in test [7], > 100 µM; in test [6], > 100 µM.
Consider `CCOC(=O)C(Cc1c[nH]c2ccc(N(CCCl)CCCl)cc12)(NC(C)=O)C(=O)OCC`, for which the GI50 in test [1] was 11.7 µM and 10.9 µM; in test [2], 23.4 µM and 14.4 µM; in test [4], 22.7 µM and 12.2 µM; in test [5] it was 4.78 µM and 3.71 µM; in test [7] it was 7.09 µM and 4.88 µM; in test [6], 20.7 µM and 10.5 µM. The TGI in test [1] is 31.3 µM and 37.9 µM; in test [2], 65.7 µM and 35.1 µM; in test [4] it was 57.5 µM and 47.2 µM; in test [5] it was 23.3 µM and 21.8 µM; in test [7], 24.6 µM and 35.3 µM; in test [6] it was 53.8 µM and 46 µM.
Consider `NC1CCN(c2nc(Nc3cccc(C(F)(F)F)c3)c3c(=O)[nH]ccc3n2)CC1`, for which the GI50 was 1.09 µM in test [1]; 0.444 µM in test [3]; 1.18 µM in test [4]; 1.24 µM in test [5]; 1.33 µM in test [7]; 1.19 µM in test [6]. Further, the TGI was 2.3 µM in test [1]; 1.88 µM in test [3]; 3.21 µM in test [4]; 2.55 µM in test [5]; 2.72 µM in test [7]; 2.62 µM in test [6].
`C1CSCCCSCCSCCCSC1`: the TGI in test [1], in test [3], in test [4], in test [5], in test [7] and in test [6] was > 100 µM in each case.

(Values after PubChem BioAssay (NCI).)
